Key:
IL-6 [1] = experiment: AGE (G-HSA)-induced inflammatory response determined by IL-6 ELISA in HAEC; type: cell-based, human; conditions: Homo sapiens; for activity at 10 µM: 24 h, Compds tested @ 10 uM; for IC50: IL6, unit inferred, read-out: IC50 (AGE stimulation of IL6)
Method: Human aortic endothelial cells (HAEC, Clonetics) were cultured according to manufacturer in growth medium (Clonetics): basal medium containing human epidermal growth factor, hydrocortisone, vascular endothelial growth factor, heparin binding growth factor-B, long R3-insulin-like growth factor-1, ascorbic acid, gentamicin/amphotericin and 5% FBS. These cell were allowed to reach at least 90% confluency before subjected to experimental treatments. […] Tumor necrosis factor α was from R&D Systems.
All treatments, compound-added and controls were carried out in serum free media containing 0.2% albumin. Media from all conditions were collected and used for IL-6 ELISA.
(§1) IL-6 ELISA was carried out using human IL-6 DuoSet ELISA development kit as described by manufacturer (R&D Systems). Mouse anti-human Il-6 was used as the capture antibody (2 ug/ml) and biotinylated goat anti-human IL-6 (200 ng/ml) was used as the detection antibody. Culture media were incubated with capture antibody (in 96 well) for 2 h at room temperature. Wells were washed three times with wash buffer (0.05% tween-20 in phosphate buffered saline (PBS) pH 7.4) followed by incubation with detection antibody for 2 h at room temperature. Following three washes wells were incubated with Streptavidin-HRP for 20 min. Color development was read at 450 nm in a Microplate reader.

IL-6 [2] = experiment: TNF-α-induced IL-6 production determined by IL-6 ELISA in HAEC; type: cell-based, human; conditions: Compds tested @ 10 uM, HAEC; for activity at 10 µM: Homo sapiens, 24 h, IL6, read-out: % IL6 production compare to TNF stimulation of IL6 (100%)
Method: Human aortic endothelial cells (HAEC, Clonetics) were cultured according to manufacturer in growth medium (Clonetics): basal medium containing human epidermal growth factor, hydrocortisone, vascular endothelial growth factor, heparin binding growth factor-B, long R3-insulin-like growth factor-1, ascorbic acid, gentamicin/amphotericin and 5% FBS. These cell were allowed to reach at least 90% confluency before subjected to experimental treatments. Glycated human serum albumin (G-HSA) was from US Biologicals. Tumor necrosis factor α was from R&D Systems.
[…] All treatments, compound-added and controls were carried out in serum free media containing 0.2% albumin. Media from all conditions were collected and used for IL-6 ELISA.
as §1

[3] = IL6, read-out: % IL6 production compare to AGE stimulation of IL6 (100%)

| Structure (SMILES) | activity at 10 µM (IL-6 [1]; [3]) | also measured |
| --- | --- | --- |
| CCN1CCCC1CNc1nc(Nc2ccc3ncccc3c2)nc(NC2CCCCCC2)n1 (centres unmarked) [Compound 4, N^2-cycloheptyl-N^4-[(1-ethyl-2-pyrrolidinyl)methyl]-N^6-(6-quinolinyl)-1,3,5-triazine-2,4,6-triamine] | 1% | – |
| CCN1CCCC1CNc1nc(Nc2ccc(F)cc2)nc(NC2CCCCCC2)n1 (centres unmarked) [Compound 10, N^2-cycloheptyl-N^4-[(1-ethyl-2-pyrrolidinyl)methyl]-N^6-(4-fluorophenyl)-1,3,5-triazine-2,4,6-triamine] | 1% | – |
| CCN1CCCC1CNc1nc(Nc2ccc(C#N)cc2)nc(NC2CCCCCC2)n1 (centres unmarked) [Compound 11, 4-[(4-(cycloheptylamino)-6-{[(1-ethyl-2-pyrrolidinyl)methyl]amino}-1,3,5-triazin-2-yl)-amino]benzonitrile] | 1% | IC50 (IL-6 [1]): 8.87 µM |
| CCN1CCCC1CNc1nc(Nc2ccc3c(c2)OCCO3)nc(NC2CCCCCC2)n1 (centres unmarked) [Compound 24, N^2-cycloheptyl-N^4-(2,3-dihydro-1,4-benzodioxin-6-yl)-N^6-[(1-ethyl-2-pyrrolidinyl)methyl]-1,3,5-triazine-2,4,6-triamine] | 1% | – |
| CCN1CCCC1CNc1nc(Nc2ccc(N(C)C)cc2)nc(NC2CCCCCC2)n1 (centres unmarked) [Compound 25, N^2-cycloheptyl-N^4-[4-(dimethylamino)phenyl]-N^6-[(1-ethyl-2-pyrrolidinyl)methyl]-1,3,5-triazine-2,4,6-triamine] | 1% | – |
| CCN1CCCC1CNc1nc(Nc2ccc(N3CCOCC3)cc2)nc(NC2CCCCCC2)n1 (centres unmarked) [Compound 27, N^2-cycloheptyl-N^4-[(1-ethyl-2-pyrrolidinyl)methyl]-N^6-[4-(4-morpholinyl)phenyl]-1,3,5-triazine-2,4,6-triamine] | 1% | activity at 10 µM (IL-6 [2]): 3% |
| CCN1CCCC1CNc1nc(Nc2ccc(NC(C)=O)cc2)nc(NC2CCCCCC2)n1 (centres unmarked) [Compound 29, N-{4-[(4-(cycloheptylamino)-6-{[(1-ethyl-2-pyrrolidinyl)methyl]amino}-1,3,5-triazin-2-yl)-amino]phenyl}acetamide] | 7% | activity at 10 µM (IL-6 [2]): 13% |
| CCN1CCCC1CNc1nc(Nc2cccc(NC(C)=O)c2)nc(NC2CCCCCC2)n1 (centres unmarked) [Compound 30, N-{3-[(4-(cycloheptylamino)-6-{[(1-ethyl-2-pyrrolidinyl)methyl]amino}-1,3,5-triazin-2-yl)-amino]phenyl}acetamide] | 17% | activity at 10 µM (IL-6 [2]): 9% |
| CCOc1ccc(Nc2nc(NCC3CCCN3CC)nc(NC3CCCCCC3)n2)cc1 (centres unmarked) [Compound 32, N^2-cycloheptyl-N^4-(4-ethoxyphenyl)-N^6-[(1-ethyl-2-pyrrolidinyl)methyl]-1,3,5-triazine-2,4,6-triamine] | 1% | – |
| CCN1CCCC1CNc1nc(Nc2ccccn2)nc(NC2CCCCCC2)n1 (centres unmarked) [Compound 34, N^2-cycloheptyl-N^4-[(1-ethyl-2-pyrrolidinyl)methyl]-N^6-(2-pyridinyl)-1,3,5-triazine-2,4,6-triamine] | 1% | activity at 10 µM (IL-6 [2]): 3% |
| CCN1CCCC1CNc1nc(Nc2scc(C)c2C(N)=O)nc(NC2CCCCCC2)n1 (centres unmarked) [Compound 39, 2-[(4-(cycloheptylamino)-6-{[(1-ethyl-2-pyrrolidinyl)methyl]amino}-1,3,5-triazin-2-yl)-amino]-4-methyl-3-thiophenecarboxamide] | 28% | – |
| CCN1CCCC1CNc1nc(NC2CCCCCC2)nc(N(C)c2ccc(Cl)cc2)n1 (centres unmarked) [Compound 40, N^2-(4-chlorophenyl)-N^4-cycloheptyl-N^6-[(1-ethyl-2-pyrrolidinyl)methyl]-N^2-methyl-1,3,5-triazine-2,4,6-triamine] | 19% | – |
| CCN1CCCC1CNc1nc(NC2CCCCCC2)nc(N(CCC#N)c2ccccc2)n1 (centres unmarked) [Compound 41, 3-[(4-(cycloheptylamino)-6-{[(1-ethyl-2-pyrrolidinyl)methyl]amino}-1,3,5-triazin-2-yl)-(phenyl)amino]propanenitrile] | 18% | – |
| CCN1CCCC1CNc1nc(NC2CCCCCC2)nc(N(C)c2ccc(OC)cc2)n1 (centres unmarked) [Compound 42, N^2-cycloheptyl-N^4-[(1-ethyl-2-pyrrolidinyl)methyl]-N^6-(4-methoxyphenyl)-N^6-methyl-1,3,5-triazine-2,4,6-triamine] | 1% | activity at 10 µM (IL-6 [2]): 1% |
| CCN1CCCC1CNc1nc(NC2CCCCCC2)nc(N(C)c2ccc(F)cc2F)n1 (centres unmarked) [Compound 43, N^2-cycloheptyl-N^4-(2,4-difluorophenyl)-N^6-[(1-ethyl-2-pyrrolidinyl)methyl]-N^4-methyl-1,3,5-triazine-2,4,6-triamine] | 4% | – |
| CCN1CCCC1CNc1nc(NC2CCCCCC2)nc(N(CC#N)c2ccccc2)n1 (centres unmarked) [Compound 44, [(4-(cycloheptylamino)-6-{[(1-ethyl-2-pyrrolidinyl)methyl]amino}-1,3,5-triazin-2-yl)(phenyl)amino]acetonitrile] | 1% | IC50 (IL-6 [1]): 7.1 µM |
| CCN1CCCC1CNc1nc(NC2CCCCCC2)nc(N(C)c2cccc(Cl)c2)n1 (centres unmarked) [Compound 45, N^2-(3-chlorophenyl)-N^4-cycloheptyl-N^6-[(1-ethyl-2-pyrrolidinyl)methyl]-N^2-methyl-1,3,5-triazine-2,4,6-triamine] | 1% | – |
| CCN1CCCC1CNc1nc(NC2CCCCCC2)nc(N(C)c2ccccc2C(F)(F)F)n1 (centres unmarked) [Compound 46, N^2-cycloheptyl-N^4-[(1-ethyl-2-pyrrolidinyl)methyl]-N^6-methyl-N^6-[2-(trifluoromethyl)phenyl]-1,3,5-triazine-2,4,6-triamine] | 3% | – |
| CCN1CCCC1CNc1nc(Nc2ccc(OC)c(F)c2)nc(N2CCN(C)CC2)n1 (centres unmarked) [Compound 62, N^2-[(1-ethyl-2-pyrrolidinyl)methyl]-N^4-(3-fluoro-4-methoxyphenyl)-6-(4-methyl-1-piperazinyl)-1,3,5-triazine-2,4-diamine] | 42% | – |
| CCN1CCCC1CNc1nc(NCC(F)(F)F)nc(Nc2ccc(OC)c(F)c2)n1 (centres unmarked) [Compound 67, N^2-[(1-ethyl-2-pyrrolidinyl)methyl]-N^4-(3-fluoro-4-methoxyphenyl)-N^6-(2,2,2-trifluoroethyl)-1,3,5-triazine-2,4,6-triamine] | 39% | – |
| CCN1CCCC1CNc1nc(NCCCN2CCCC2=O)nc(Nc2ccc(OC)c(F)c2)n1 (centres unmarked) [Compound 74, 1-[3-({4-{[(1-ethyl-2-pyrrolidinyl)methyl]amino}-6-[(3-fluoro-4-methoxyphenyl)amino]-1,3,5-triazin-2-yl}amino)propyl]-2-pyrrolidinone] | 49% | – |
| COc1ccc(Nc2nc(NCCCn3ccnc3)nc(NC3CCCCCC3)n2)cc1F [Compound 100, N^2-cycloheptyl-N^4-(3-fluoro-4-methoxyphenyl)-N^6-[3-(1H-imidazol-1-yl)propyl]-1,3,5-triazine-2,4,6-triamine] | 1% | – |
| COc1ccc(Nc2nc(N3CCOCC3)nc(N3CCN(Cc4ccccc4)CC3)n2)cc1 [Compound 173, [4-(4-Benzyl-piperazin-1-yl)-6-morpholin-4-yl-[1,3,5]triazin-2-yl]-(4-methoxy-phenyl)-amine] | – | % IL6 production compare to TNF stimulation to IL6 (100%) (IL-6 [2]): 47% |
| c1ccc2cc(Nc3nc(NC4CCCCCC4)nc(N4CCOCC4)n3)ccc2c1 [Compound 174, N-Cycloheptyl-6-morpholin-4-yl-N′-naphthalen-2-yl-[1,3,5]triazine-2,4-diamine] | – | % IL6 production compare to TNF stimulation to IL6 (100%) (IL-6 [2]): 34% |
| COc1ccc(Nc2nc(NC3CCCCCC3)nc(N3CCOCC3)n2)cc1F [Compound 175, N-Cycloheptyl-N′-(3-fluoro-4-methoxy-phenyl)-6-morpholin-4-yl-[1,3,5]triazine-2,4-diamine] | – | % IL6 production compare to TNF stimulation to IL6 (100%) (IL-6 [2]): 18% |
| c1ccc(Nc2nc(NC3CCCCCC3)nc(N3CCOCC3)n2)cc1 [Compound 176, N-Cycloheptyl-6-morpholin-4-yl-N′-phenyl-[1,3,5]triazine-2,4-diamine] | – | % IL6 production compare to TNF stimulation to IL6 (100%) (IL-6 [2]): 33% |
| COc1ccc(Nc2nc(NC3CCCCCC3)nc(N(C)Cc3ccccc3)n2)cc1 [Compound 178, N-Benzyl-N′-cycloheptyl-N″-(4-methoxy-phenyl)-N-methyl-[1,3,5]triazine-2,4,6-triamine] | – | % IL6 production compare to TNF stimulation to IL6 (100%) (IL-6 [2]): 19% |
| CN1CCC(N(C)c2nc(Nc3ccc4ccccc4c3)nc(NC3CC3)n2)CC1 [Compound 180, N-Cyclopropyl-N′-methyl-N′-(1-methyl-piperidin-4-yl)-N″-naphthalen-2-yl-[1,3,5]triazine-2,4,6-triamine] | – | activity at 10 µM (IL-6 [1]; read-out: % IL6 production compare to AGE stimulation of IL6 (100%)): 5% |

Reference: patent US7169785B2, “Methods and compositions of novel triazine compounds” (Reddy US Therapeutics, Inc., priority 2001, dated 2007)
